39 molecules from patent US20050215548A1 (Cyclacel Limited, priority 2002, published 2005) can be followed below.

T1 sequence (Q00987 whole entry): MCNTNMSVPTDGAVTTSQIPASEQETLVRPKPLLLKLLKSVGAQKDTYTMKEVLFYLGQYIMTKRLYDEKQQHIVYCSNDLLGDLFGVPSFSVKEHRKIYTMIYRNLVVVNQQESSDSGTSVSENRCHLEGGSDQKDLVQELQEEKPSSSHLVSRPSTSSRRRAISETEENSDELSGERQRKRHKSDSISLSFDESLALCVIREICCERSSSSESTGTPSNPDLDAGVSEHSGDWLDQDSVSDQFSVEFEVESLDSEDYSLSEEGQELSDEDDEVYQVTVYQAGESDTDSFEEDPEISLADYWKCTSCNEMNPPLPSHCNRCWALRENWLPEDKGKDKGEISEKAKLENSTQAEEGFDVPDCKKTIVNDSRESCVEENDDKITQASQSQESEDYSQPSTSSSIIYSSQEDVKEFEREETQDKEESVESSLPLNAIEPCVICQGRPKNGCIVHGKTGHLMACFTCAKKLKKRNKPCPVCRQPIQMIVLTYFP

This test has as its target T1, HDM2 (Homo sapiens, UniProt Q00987).
T1 construct: Recombinant HDM2 (1.5 μg per well) in TBS-BSA buffer
As to the kind of experiment: Fluorescence polarisation competitive HDM2 binding assay. The note with it: fluorescence polarisation format; Table 1; read-out: IC50 In vitro competitive HDM2 binding assay. The protocol:
This was carried out using a 96-well microtiter plate (Costar) format. Recombinant HDM2 (1.5 μg per well) in TBS-BSA buffer (50 mM Tris pH 7.4, 150 mM NaCl, and 0.1% BSA) was incubated for 5 min at room temperature in the presence of serially diluted test compound (in TBS-BSA buffer with a final concentration of 5% DMSO). Fluorescently labelled p53-derived peptide (fluorescein-[…]NH2, 0.2 μM) was added to each well and the plate was incubated at room temperature for 45 min. The fluorescence polarisation (excitation 485 nm, emission 520 nm) of the peptide was measured. IC50 values were calculated from dose-response curves.
The fluorescence polarisation competitive HDM2 binding assay described in Example 3 was used. Furthermore, the anti-proliferative potency of the compounds against three human tumour cell lines with different genetic make-up was also determined. […] The cell lines used were as follows: AGS, gastric adenocarcinoma, wild-type p53; H1299, large cell lung carcinoma, p53 null, low HDM2; SJSA-1, primitive multipotential bone sarcoma, wild-type p53, overexpressed HDM2.
(In general: In fluorescence polarisation assays a small probe gives low polarisation when free and higher when bound to something large.)
One may read the IC50 as the concentration needed to halve the response being measured. In the case of `O=S(=O)(Nc1cc(C(F)(F)F)cc(C(F)(F)F)c1)c1c(Cl)nc2sccn12` [Compound 84, 6-Chloro-imidazo[2,1-b]thiazole-5-sulfonic acid (3,5-bis-trifluoro-methyl-phenyl)-amide], the IC50 is 308 ± 17 µM. With `O=S(=O)(Nc1ccc(Cl)cc1)c1ccc2c(c1)OCCO2` [Compound 85, 2,3-Dihydro-benzo[1,4]dioxine-6-sulfonic acid (4-chloro-phenyl)-amide] the figure was 432 ± 7 µM.

Consider `O=S(=O)(Nc1cc(C(F)(F)F)cc(C(F)(F)F)c1)c1ccc2c(c1)OCCO2` [Compound 86, 2,3-Dihydro-benzo[1,4]dioxine-6-sulfonic acid (3,5-bis-trifluoromethyl-phenyl)-amide], for which the IC50 came out at 375 ± 39 µM. With `O=S(=O)(Nc1ccc(Cl)cc1)c1ccc(Oc2ccccc2)nc1` [Compound 87, 6-Phenoxy-pyridine-3-sulfonic acid (4-chloro-phenyl)-amide] the figure was 212 ± 27 µM; with `Cc1c(S(=O)(=O)Nc2ccc(Cl)c([N+](=O)[O-])c2)sc2ccc(Cl)cc12` [Compound 88, 5-Chloro-3-methyl-benzo[b]thiophene-2-sulfonic acid (4-chloro-3-nitro-phenyl)-amide], 174 ± 11 µM.

Turning to `O=S(=O)(Nc1cc(C(F)(F)F)cc(C(F)(F)F)c1)c1ccc(-n2cccn2)cc1` [Compound 89, N-(3,5-Bis-trifluoromethyl-phenyl)-4-pyrazol-1-yl-benzenesulfonamide], the IC50 was 275 ± 45 µM.

Consider `CCOC(=O)c1[nH]c(C)c(S(=O)(=O)Nc2ccc(Cl)cc2)c1C` [Compound 90, 4-(4-Chloro-phenylsulfamoyl)-3,5-dimethyl-1H-pyrrole-2-carboxylic acid ethyl ester], for which the IC50 turned out to be 331 ± 52 µM. Turning to `Cc1[nH]c(C(=O)O)c(C)c1S(=O)(=O)Nc1cc(C(F)(F)F)cc(C(F)(F)F)c1` [Compound 91, 4-(3,5-Bis-trifluoromethyl-phenylsulfamoyl)-3,5-dimethyl-1H-pyrrole-2-carboxylic acid], the IC50 came out at 481 µM.

As for `Cc1[nH]c(C(=O)O)c(C)c1S(=O)(=O)Nc1ccc(Cl)cc1` [Compound 92, 4-(4-Chloro-phenylsulfamoyl)-3,5-dimethyl-1H-pyrrole-2-carboxylic acid], the IC50 came out at 418 µM.

`CCOC(=O)c1sc(S(=O)(=O)Nc2ccc(Cl)cc2)nc1C` [Compound 93, 2-(4-Chloro-phenylsulfamoyl)-4-methyl-thiazole-5-carboxylic acid ethyl ester]: the IC50 stood at 373 ± 373 µM.

As for `O=S(=O)(Nc1ccc(Cl)cc1)c1cc(Cl)c(O)c(Cl)c1` [Compound 94, 3,5-Dichloro-N-(4-chloro-phenyl)-4-hydroxy-benzenesulfonamide], the IC50 was found to be 227 ± 7 µM. The result for `O=S(=O)(Nc1cc(C(F)(F)F)cc(C(F)(F)F)c1)c1cc(Cl)c(O)c(Cl)c1` [Compound 95, N-(3,5-Bis-trifluoromethyl-phenyl)-3,5-dichloro-4-hydroxy-benzenesulfonamide] reads 243 ± 11 µM. With `O=S(=O)(Nc1ccc(C(F)(F)F)cc1)c1cc(Cl)c(O)c(Cl)c1` [Compound 96, 3,5-Dichloro-4-hydroxy-N-(4-trifluoromethyl-phenyl)-benzenesulfonamide], the IC50 was determined as 449 ± 51 µM. Consider `O=[N+]([O-])c1ccc(S(=O)(=O)Nc2ccc(Cl)cc2)cc1` [Compound 97, N-(4-Chloro-phenyl)-4-nitro-benzene-sulfonamide], for which the IC50 came to 394 ± 13 µM. For the molecule `O=[N+]([O-])c1ccc(S(=O)(=O)Nc2cc(C(F)(F)F)cc(C(F)(F)F)c2)cc1` [Compound 98, N-(3,5-Bis-trifluoromethyl-phenyl)-4-nitro-benzenesulfonamide], the IC50 was 207 µM. The result for `Nc1ccc(S(=O)(=O)Nc2cc(C(F)(F)F)cc(C(F)(F)F)c2)cc1Cl` [Compound 99, 4-Amino-N-(3,5-bis-trifluoromethyl-phenyl)-3-chloro-benzenesulfonamide] reads 248 ± 29 µM. With `O=[N+]([O-])c1cccc(S(=O)(=O)Nc2ccc(C(F)(F)F)cc2)c1` [Compound 100, 3-Nitro-N-(4-trifluoromethyl-phenyl)-benzenesulfonamide] the figure was 431 ± 5 µM. The result for `O=S(=O)(Nc1cc(Cl)cc(Cl)c1)c1cc(Cl)c(O)c(Cl)c1` [Compound 101, 3,5-Dichloro-N-(3,5-dichloro-phenyl)-4-hydroxy-benzenesulfonamide] reads 299 ± 31 µM; that for `Nc1ccc(S(=O)(=O)Nc2ccc(Cl)cc2)cc1Cl` [Compound 102, 4-Amino-3-chloro-N-(4-chloro-phenyl)-benzenesulfonamide], 467 ± 35 µM; that for `COc1ccc(S(=O)(=O)Nc2ccc(Cl)cc2)cc1Cl` [Compound 103, 3-Chloro-N-(4-chloro-phenyl)-4-methoxy-benzenesulfonamide], 408 ± 18 µM. In the case of `CC(=O)N1CCN(c2cc(S(=O)(=O)Nc3cc(C(F)(F)F)cc(C(F)(F)F)c3)ccc2[N+](=O)[O-])CC1` [Compound 106, 3-(4-Acetyl-piperazin-1-yl)-N-(3,5-bis-trifluoromethyl-phenyl)-4-nitro-benzenesulfonamide], the IC50 is 241 ± 158 µM. The result for `O=[N+]([O-])c1ccccc1S(=O)(=O)Nc1cc(C(F)(F)F)cc(C(F)(F)F)c1` [Compound 107, N-(3,5-Bis-trifluoromethyl-phenyl)-2-nitro-benzenesulfonamide] reads 401 ± 46 µM; that for `O=C(O)c1cccc(S(=O)(=O)Nc2cc(C(F)(F)F)cc(C(F)(F)F)c2)c1` [Compound 108, 3-(3,5-Bis-trifluoromethyl-phenylsulfamoyl)-benzoic acid], 451 ± 118 µM. The result for `O=S(=O)(NCc1ccc(Cl)cc1)c1cc(Cl)c(O)c(Cl)c1` [Compound 109, 3,5-Dichloro-N-(4-chloro-benzyl)-4-hydroxy-benzenesulfonamide] reads 375 ± 41 µM. The result for `O=S(=O)(NCc1ccc(C(F)(F)F)cc1)c1cc(Cl)c(O)c(Cl)c1` [Compound 110, 3,5-Dichloro-4-hydroxy-N-(4-trifluoromethyl-benzyl)-benzenesulfonamide] reads 242 µM. Consider `O=S(=O)(NCCc1c[nH]c2ccccc12)c1cc(Cl)c(O)c(Cl)c1` [Compound 111, 3,5-Dichloro-4-hydroxy-N-[2-(1H-indol-3-yl)-ethyl]-benzenesulfonamide], for which the IC50 is 448 µM. The result for `O=S(=O)(Nc1cc(Cl)cc(Cl)c1)c1cc(Br)c(Br)s1` [Compound 112, 4,5-Dibromo-thiophene-2-sulfonic acid (3,5-dichloro-phenyl)-amide] reads 194 µM; that for `O=S(=O)(Nc1cc(Cl)cc(Cl)c1)c1ccc(-c2ncco2)cc1` [Compound 113, N-(3,5-Dichloro-phenyl)-4-oxazol-2-yl-benzenesulfonamide], 246 µM; that for `O=S(=O)(Nc1cc(C(F)(F)F)cc(C(F)(F)F)c1)c1cc(Br)c(Cl)s1` [Compound 114, 4-Bromo-5-chloro-thiophene-2-sulfonic acid (3,5-bis-trifluoromethyl-phenyl)-amide], 293 µM. With `O=S(=O)(Nc1cc(Cl)cc(Cl)c1)c1cc(Br)c(Cl)s1` [Compound 115, 4-Bromo-5-chloro-thiophene-2-sulfonic acid (3,5-dichloro-phenyl)-amide] the figure was 431 µM; with `O=S(=O)(Nc1ccc(C(F)(F)F)cc1)c1ccc(Br)s1` [Compound 116, 5-Bromo-thiophene-2-sulfonic acid (4-trifluoromethyl-phenyl)-amide], 152 µM. With `O=S(=O)(Nc1cc(C(F)(F)F)cc(C(F)(F)F)c1)c1ccc(S(=O)(=O)c2ccccc2)s1` [Compound 117, 5-Benzenesulfonyl-thiophene-2-sulfonic acid (3,5-bis-trifluoromethyl-phenyl)-amide] the figure was 147 µM; with `O=S(=O)(Nc1ccc(Cl)cc1Cl)c1ccc(S(=O)(=O)c2ccccc2)s1` [Compound 118, 5-Benzenesulfonyl-thiophene-2-sulfonic acid (2,4-dichloro-phenyl)-amide], 305 µM; with `Cc1c(S(=O)(=O)Nc2cc(C(F)(F)F)cc(C(F)(F)F)c2)sc2ccc(Cl)cc12` [Compound 119, 5-Chloro-3-methyl-benzo[b]thiophene-2-sulfonic acid (3,5-bis-trifluoromethyl-phenyl)-amide], 106 ± 13 µM.

On to `O=S(=O)(Nc1cc(C(F)(F)F)cc(C(F)(F)F)c1)c1cc2ccccc2s1` [Compound 120, Benzo[b]thiophene-2-sulfonic acid (3,5-bis-trifluoromethyl-phenyl)-amide], for which the IC50 came out at 193 ± 12 µM. The result for `O=S(=O)(Nc1ccc(Cl)cc1)c1ccc2nsnc2c1` [Compound 121, Benzo[1,2,5]thiadiazole-5-sulfonic acid (4-chloro-phenyl)-amide] reads 314 ± 29 µM; that for `O=S(=O)(Nc1cc(C(F)(F)F)cc(C(F)(F)F)c1)c1ccc2nsnc2c1` [Compound 122, Benzo[1,2,5]thiadiazole-5-sulfonic acid (3,5-bis-trifluoromethyl-phenyl)-amide], 165 ± 8 µM; that for `O=S(=O)(Nc1ccc(C(F)(F)F)cc1)c1ccc2nsnc2c1` [Compound 123, Benzo[1,2,5]thiadiazole-5-sulfonic acid (4-trifluoromethyl-phenyl)-amide], 329 ± 42 µM. With `O=S(=O)(Nc1cc(C(F)(F)F)cc(C(F)(F)F)c1)c1ccc(-c2ccccn2)s1` [Compound 124, 5-Pyridin-2-yl-thiophene-2-sulfonic acid (3,5-bis-trifluoromethyl-phenyl)-amide] the figure was 265 ± 64 µM.
